Measured values published in patent US10745416B2, “Macrocyclic compounds for treating disease” (Turning Point Therapeutics, Inc., priority 2017, dated 2020).

Legend:
Experiment in all cases: Cell proliferation assay (CellTiter-Glo, 72 hours)
TT cell (RET C634W) = type: cell-based; settings: Homo sapiens, anti-cell proliferation
Description: Human medulla thyroid carcinoma cell line TT (containing RET […] mutation) and acute myelogenous cell line KG-1 were purchased from ATCC. Human colon cancer cell line KMI2 (containing TPM3-TRKA) was obtained from NCI.
Two thousand cells per well were seeded in 384 well white plate for 24 hrs, and then treated with compounds for 72 hours (37° C., 5% CO2). Cell proliferation was measured using CellTiter-Glo luciferase-based ATP detection assay (Promega) following the manufactures's protocol. IC50 determinations were performed using GraphPad Prism software (GraphPad, Inc., San Diego, Calif.).

KM12 cell (TPM3-TRKA) = type: cell-based, human
In short: (§1)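 Cells used were KG-1 (AML), TT medullary thyroid carcinoma ([…]) and KM12 colon (TPM3-TRKA). Viability was read by CellTiter-Glo ATP luminescence, and IC50 derived by curve fitting.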

KG-1 = type: cell-based, human
In short: as §1

BaF3 KIF5B-RET = target: T1, BaF3 KIF5B-RET (Homo sapiens, UniProt P07949); type: cell-based; settings: anti-cell proliferation, read-out: BaF3 KIF5B-RET IC50
T1 construct: fused on or other part: P33176 (Kinesin-1 heavy chain)
In short: (§2)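 Ba/F3 cells were lentivirally transduced with wild-type or mutant KIF5B-RET, puromycin-selected and grown without IL-3. CellTiter-Glo ATP luminescence read viability, and IC50 values came from curve fitting.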

BaF3 KIF5B-RET_V804M = target: T2, BaF3 KIF5B-RET_V804M (Homo sapiens, UniProt P07949, V804M, cells depend on it); type: cell-based; settings: anti-cell proliferation, read-out: BaF3 KIF5B-RET_V804M IC50
T2 construct: fused on or other part: P33176 (Kinesin-1 heavy chain)
In short: as §2

BaF3 EML4-ALK = target: T3, BaF3 EML4-ALK (Homo sapiens, UniProt Q9UM73); type: cell-based; settings: anti-cell proliferation
T3 construct: The EML4-ALK gene (variant 1) was synthesized at GenScript and cloned into pCDH-CMV-MCS-EF1-Puro plasmid (System Biosciences, Inc); fused on or other part: Q9HC35 (Echinoderm microtubule-associated protein-like 4)
In short: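 Ba/F3 cells were stably transduced with wild-type EML4-ALK variant 1 and selected for IL-3-independent growth. Cells were seeded for 24 h, then exposed to compounds for 72 h at 37 °C, 5% CO2. Viability was read as ATP luminescence and IC50 values were fitted.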

BaF3 KIF5B-RET_G810R = target: T4, BaF3 KIF5B-RET_G810R (Homo sapiens, UniProt P07949, G810R, cells depend on it); type: cell-based; settings: anti-cell proliferation, read-out: BaF3 KIF5B-RET_G810R IC50
T4 construct: fused on or other part: P33176 (Kinesin-1 heavy chain)

[1] = Homo sapiens, KM12, anti-cell proliferation
[2] = Homo sapiens, KG-1, anti-cell proliferation

T1 sequence (P07949 whole entry, change not shown, the tested form may be a part): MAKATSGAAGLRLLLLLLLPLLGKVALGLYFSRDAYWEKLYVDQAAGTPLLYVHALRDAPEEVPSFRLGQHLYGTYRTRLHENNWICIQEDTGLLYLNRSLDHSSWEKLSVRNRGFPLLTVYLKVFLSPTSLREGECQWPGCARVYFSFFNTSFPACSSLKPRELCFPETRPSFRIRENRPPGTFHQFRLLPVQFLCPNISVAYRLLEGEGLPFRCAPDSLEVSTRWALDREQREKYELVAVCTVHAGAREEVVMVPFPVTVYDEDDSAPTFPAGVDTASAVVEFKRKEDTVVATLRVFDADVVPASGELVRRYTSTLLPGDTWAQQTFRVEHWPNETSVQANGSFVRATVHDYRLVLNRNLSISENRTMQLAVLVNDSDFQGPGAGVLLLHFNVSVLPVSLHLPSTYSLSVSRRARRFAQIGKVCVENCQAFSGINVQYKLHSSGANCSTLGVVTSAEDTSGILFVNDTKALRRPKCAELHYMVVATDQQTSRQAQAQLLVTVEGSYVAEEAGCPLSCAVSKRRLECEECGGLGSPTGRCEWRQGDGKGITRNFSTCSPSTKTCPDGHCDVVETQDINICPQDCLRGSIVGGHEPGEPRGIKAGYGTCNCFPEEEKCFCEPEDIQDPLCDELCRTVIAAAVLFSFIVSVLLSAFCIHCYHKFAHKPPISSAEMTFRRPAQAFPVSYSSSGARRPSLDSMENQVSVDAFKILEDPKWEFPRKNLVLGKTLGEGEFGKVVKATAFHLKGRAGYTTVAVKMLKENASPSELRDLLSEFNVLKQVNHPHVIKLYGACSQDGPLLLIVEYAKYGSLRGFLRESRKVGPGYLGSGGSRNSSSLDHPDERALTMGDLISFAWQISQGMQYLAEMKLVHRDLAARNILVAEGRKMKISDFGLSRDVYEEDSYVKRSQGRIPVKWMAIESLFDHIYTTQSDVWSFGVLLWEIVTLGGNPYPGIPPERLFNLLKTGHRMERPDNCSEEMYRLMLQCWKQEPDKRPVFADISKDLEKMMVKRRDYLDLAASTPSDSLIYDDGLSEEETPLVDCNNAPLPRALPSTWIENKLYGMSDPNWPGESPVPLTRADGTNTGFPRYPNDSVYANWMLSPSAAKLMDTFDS
T2 sequence (P07949 whole entry V804M, the tested form may be a part): as the sequence (P07949 whole entry, change not shown, the tested form may be a part) above, with V804M counted along it
T3 sequence (Q9UM73 whole entry, change not shown, the tested form may be a part): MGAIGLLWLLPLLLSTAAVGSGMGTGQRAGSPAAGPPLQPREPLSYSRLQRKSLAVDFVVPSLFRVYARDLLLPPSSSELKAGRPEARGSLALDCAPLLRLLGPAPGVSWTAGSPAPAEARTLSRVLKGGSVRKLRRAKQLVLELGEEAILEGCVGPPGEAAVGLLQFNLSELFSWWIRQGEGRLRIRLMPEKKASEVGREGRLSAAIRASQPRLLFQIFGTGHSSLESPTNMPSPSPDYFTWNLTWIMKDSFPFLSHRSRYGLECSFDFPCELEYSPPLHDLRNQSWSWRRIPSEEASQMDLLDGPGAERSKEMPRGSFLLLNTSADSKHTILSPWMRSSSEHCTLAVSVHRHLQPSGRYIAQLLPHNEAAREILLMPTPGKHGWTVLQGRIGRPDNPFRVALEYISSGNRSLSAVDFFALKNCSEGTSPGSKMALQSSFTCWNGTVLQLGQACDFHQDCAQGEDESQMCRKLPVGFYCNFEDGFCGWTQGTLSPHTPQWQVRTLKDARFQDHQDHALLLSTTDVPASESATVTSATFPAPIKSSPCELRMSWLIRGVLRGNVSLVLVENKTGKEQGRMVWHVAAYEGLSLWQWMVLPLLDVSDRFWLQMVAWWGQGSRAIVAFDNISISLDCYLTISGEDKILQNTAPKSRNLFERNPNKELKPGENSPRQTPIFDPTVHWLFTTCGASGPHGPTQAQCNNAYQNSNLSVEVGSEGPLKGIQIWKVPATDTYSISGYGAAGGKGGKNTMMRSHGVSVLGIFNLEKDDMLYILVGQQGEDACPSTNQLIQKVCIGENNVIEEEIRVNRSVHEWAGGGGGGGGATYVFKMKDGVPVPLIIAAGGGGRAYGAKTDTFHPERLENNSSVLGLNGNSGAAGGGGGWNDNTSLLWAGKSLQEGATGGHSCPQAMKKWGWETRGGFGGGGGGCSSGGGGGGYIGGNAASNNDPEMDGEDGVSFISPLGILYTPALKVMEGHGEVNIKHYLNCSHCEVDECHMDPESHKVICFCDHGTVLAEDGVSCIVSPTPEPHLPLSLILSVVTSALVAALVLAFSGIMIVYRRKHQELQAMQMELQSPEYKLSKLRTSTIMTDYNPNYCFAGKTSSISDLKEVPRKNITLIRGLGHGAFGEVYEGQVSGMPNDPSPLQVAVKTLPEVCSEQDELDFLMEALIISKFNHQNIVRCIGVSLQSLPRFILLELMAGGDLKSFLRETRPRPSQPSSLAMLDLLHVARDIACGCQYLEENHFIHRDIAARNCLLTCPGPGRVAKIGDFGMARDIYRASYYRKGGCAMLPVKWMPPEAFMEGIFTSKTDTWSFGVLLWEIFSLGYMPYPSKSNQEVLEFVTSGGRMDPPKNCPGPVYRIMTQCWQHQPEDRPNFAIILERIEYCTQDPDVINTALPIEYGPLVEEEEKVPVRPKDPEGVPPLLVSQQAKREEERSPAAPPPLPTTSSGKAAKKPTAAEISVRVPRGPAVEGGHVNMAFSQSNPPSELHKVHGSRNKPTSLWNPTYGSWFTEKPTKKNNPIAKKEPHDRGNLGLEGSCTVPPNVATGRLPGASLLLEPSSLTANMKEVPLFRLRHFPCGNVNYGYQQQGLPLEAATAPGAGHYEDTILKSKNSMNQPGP
T4 sequence (P07949 whole entry G810R, the tested form may be a part): as the sequence (P07949 whole entry, change not shown, the tested form may be a part) above, with G810R counted along it

## C[C@H]1CNC(=O)c2cnn3cc4c(nc23)N(Cc2cc(F)ccc2O1)[C@@H]1CCC[C@H]1O4 [Compound 2]
TT cell (RET C634W)
  IC50: 1780 nM
KM12 cell (TPM3-TRKA); [1]
  IC50: 255 nM
KG-1; [2]
  IC50: 5000 nM
BaF3 KIF5B-RET
  GI50: 1450 nM
BaF3 KIF5B-RET_V804M
  GI50: > 10000 nM
BaF3 EML4-ALK
  GI50: > 10000 nM

## C[C@H]1CNC(=O)c2cnn3cc4c(nc23)N(Cc2cc(F)cc(F)c2O1)[C@@H]1CCC[C@@H]1O4 [Compound 3, (3aR,11S,20aS)-7,9-difluoro-11-methyl-2,3,3a,12,13,20a-hexahydro-1H,5H-17-19-(metheno)cyclopenta[5,6][1,4] oxazino[3,4-i]pyrazolo[4,3-f][1,4,8,10]benzoxatriacyclotridecin-14(11H)-one]
TT cell (RET C634W)
  IC50: 7.9 nM
KM12 cell (TPM3-TRKA); [1]
  IC50: 4.2 nM
KG-1; [2]
  IC50: 505 nM
BaF3 KIF5B-RET
  GI50: < 0.2 nM
BaF3 KIF5B-RET_V804M
  GI50: 1700 nM
BaF3 EML4-ALK
  GI50: 1500 nM

## C[C@H]1CNC(=O)c2cnn3cc4c(nc23)N(Cc2cc(F)ccc2O1)[C@@H]1COC[C@@H]1O4 [Compound 4, (3aR,11S,20aS)-7-fluoro-11-methyl-1,3,3a,12,13,20a-hexahydro-5H-17-19-(metheno)furo[3′,4′:5,6][1,4] oxazino[3,4-i]pyrazolo[4,3-f][1,4,8,10]benzoxatriacyclotridecin-14(11H)-one]
TT cell (RET C634W)
  IC50: 462 nM
KM12 cell (TPM3-TRKA); [1]
  IC50: 22 nM
KG-1; [2]
  IC50: 5000 nM
BaF3 KIF5B-RET
  GI50: 184 nM
BaF3 KIF5B-RET_V804M
  GI50: 5000 nM
BaF3 EML4-ALK
  GI50: 3290 nM

## O=C1N[C@H](C(F)F)COc2ncc(F)cc2CN2c3nc4c1cnn4cc3O[C@H]1CCC[C@H]12 [Compound 47, (3aR,12S,20aS)-12-(difluoromethyl)-7-fluoro-2,3,3a,12,13,20a-hexahydro-1H,5H-17,19-(metheno)cyclopenta[5,6][1,4] oxazino[3,4-i]pyrazolo[4,3-f]pyrido[3,2-l][1,4,8,10]oxatriazacyclotridecin-14(11H)-one]
KM12 cell (TPM3-TRKA); [1]
  IC50: < 0.2 nM
KG-1; [2]
  IC50: 3.5 nM
BaF3 KIF5B-RET_G810R
  GI50: 3.6 nM
BaF3 KIF5B-RET
  GI50: < 0.2 nM
BaF3 KIF5B-RET_V804M
  GI50: 469 nM
BaF3 EML4-ALK
  GI50: 139 nM

## O=C1N[C@H](C(F)(F)F)COc2ncc(F)cc2CN2c3nc4c1cnn4cc3O[C@H]1CCC[C@H]12 [Compound 48, (3aR,12S,20aS)-7-fluoro-12-(trifluoromethyl)-2,3,3a,12,13,20a-hexahydro-1H,5H-17,19-(metheno)cyclopenta[5,6][1,4]oxazino[3,4-i]pyrazolo[4,3-f]pyrido[3,2-l][1,4,8,10]oxatriazacyclotridecin-14(11H)-one]
KM12 cell (TPM3-TRKA); [1]
  IC50: 5.9 nM
KG-1; [2]
  IC50: 117 nM
BaF3 KIF5B-RET_G810R
  GI50: 90.9 nM
BaF3 KIF5B-RET
  GI50: 0.2 nM
BaF3 KIF5B-RET_V804M
  GI50: 1070 nM
BaF3 EML4-ALK
  GI50: 456 nM

## O=C1NC[C@@H](CO)Oc2ncc(F)cc2CN2c3nc4c1cnn4cc3O[C@H]1CCC[C@H]12 [Compound 49, (3aR,11S,20aS)-7-fluoro-11-(hydroxymethyl)-2,3,3a,12,13,20a-hexahydro-1H,5H-17,19-(metheno)cyclopenta[5,6][1,4]oxazino[3,4-i]pyrazolo[4,3-f]pyrido[3,2-l][1,4,8,10]oxatriazacyclotridecin-14(11H)-one]
KM12 cell (TPM3-TRKA); [1]
  IC50: 1460 nM
KG-1; [2]
  IC50: 5240 nM
BaF3 KIF5B-RET_G810R
  GI50: 1640 nM
BaF3 KIF5B-RET
  GI50: 397 nM
BaF3 KIF5B-RET_V804M
  GI50: 5000 nM
BaF3 EML4-ALK
  GI50: > 10000 nM

## (3aR,11s,13S,21aS)-7-fluoro-2,3,3a,12, 13,14,15,21a-octahydro-1H,5H,11H- 11,13-methano-18,20- (metheno)cyclopenta[5,6][1,4] oxazino[4,3-e]pyrazolo[3,4-h]pyrido[2,3- b][1,5,7,11]oxatriazacyclotetradecine [Compound 46]
KM12 cell (TPM3-TRKA); anti-cell proliferation
  IC50: 2.8 nM
KG-1; anti-cell proliferation
  IC50: 5.9 nM
BaF3 KIF5B-RET_G810R
  GI50: 2.9 nM
BaF3 KIF5B-RET
  GI50: < 0.2 nM
BaF3 KIF5B-RET_V804M
  GI50: 71.5 nM
BaF3 EML4-ALK
  GI50: 55.5 nM
